Data: US10407467B2, “Polymyxin derivatives and their use in combination therapy together with different antibiotics” (priority 2013, dated 2019)
Where a name gives a salt, the structure may show the parent alone. Bridge positions count the residues as written; N and C are the ends. Square brackets hold non-standard residues; d marks the D form. Peptide text beside a SMILES is read from it. * marks the point of attachment. ξ: configuration not given here. ξHexahydromandeloyl = O=C(C(O)C1CCCCC1)*; Thr(3ξ) = CC(O)[C@H](N)C(=O)O; Dab = NCC[C@H](N)C(=O)O; Dap = NC[C@H](N)C(=O)O; X4 = NC1CCCC1C(=O)*

Assays:
Assay type in all cases: cell-based
Acinetobacter baumannii [1] = experiment: MIC, compound in combination with a second agent (broth microdilution); conditions: 1:1 (wt:wt) combination with Rifampicin, MIC = total drug concentration; for MIC A. baumannii CCUG57249: strain CCUG57249; for MIC A. baumannii NCTC 13423: strain NCTC 13423; for MIC A. baumannii NCTC 13424: strain NCTC 13424
In short: (§1)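 Read-out is the total-drug MIC of a 1:1 weight ratio combination with another agent, e.g. rifampicin. Duplicates within 2-fold gave the lower value; wider spread meant a non-valid assay. Where compounds were tested multiple times, the mode is given.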

Escherichia coli [2] = experiment: as above; conditions: 1:1 (wt:wt) combination with Rifampicin, MIC = total drug concentration; for MIC E. coli ATCC25922: strain ATCC25922
In short: as §1

Klebsiella pneumoniae [3] = experiment: as above; conditions: 1:1 (wt:wt) combination with Rifampicin, MIC = total drug concentration; for MIC K. pneumoniae ATCC 4352: strain ATCC 4352; for MIC K. pneumoniae ATCC-BAA-2146: strain ATCC-BAA-2146; for MIC K. pneumoniae CCUG-59348: strain CCUG-59348
In short: as §1

Pseudomonas aeruginosa [4] = experiment: as above; conditions: 1:1 (wt:wt) combination with Rifampicin, MIC = total drug concentration; for MIC P. aeruginosa ATCC 27853: strain ATCC 27853; for MIC P. aeruginosa ATCC CRM-9027: strain ATCC CRM-9027; for MIC P. aeruginosa ATCC-47: strain ATCC-47; for MIC P. aeruginosa CCUG 59626: strain CCUG 59626
In short: as §1

Acinetobacter baumannii [5] = experiment: MIC, sole activity (no second agent); conditions: in the absence of Rifampicin; for MIC A. baumannii ATCC13424: strain ATCC13424; for MIC A. baumannii ATCCBAA-747: strain ATCCBAA-747; for MIC A. baumannii CCUG57249: strain CCUG 57249; for MIC A. baumannii NCTC 13423: strain NCTC13423
In short: (§2)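 Up to four strains per species were tested in cation-adjusted Mueller-Hinton broth, with inoculum made by direct colony suspension from 18-24 hour Mueller-Hinton agar plates, adjusted to 0.5 McFarland. Duplicates differing by under 2-fold gave the lower value; greater spread voided the run. Values are relative to Polymyxin B.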

Escherichia coli [6] = experiment: MIC, sole activity (no second agent); conditions: in the absence of Rifampicin; for MIC E. coli NCTC9001: strain NCTC9001
In short: as §2

Klebsiella pneumoniae [7] = experiment: MIC, sole activity (no second agent); conditions: in the absence of Rifampicin; for MIC K. pneumoniae ATCC 4352: strain ATCC 4352; for MIC K. pneumoniae ATCC-BAA2146: strain ATCC-BAA2146; for MIC K. pneumoniae CCUG-59348: strain CCUG-59348
In short: as §2

Pseudomonas aeruginosa [8] = experiment: MIC, sole activity (no second agent); conditions: in the absence of Rifampicin; for MIC P. aeruginosa ATCC 27853: strain ATCC27853; for MIC P. aeruginosa ATCC-47: strain ATCC-47; for MIC P. aeruginosa ATCCCRM-9027: strain ATCCCRM-9027; for MIC P. aeruginosa CCUG 59626: strain CCUG 59626
In short: as §2

Row | MIC A. baumannii CCUG57249 (Acinetobacter baumannii [1]) | MIC A. baumannii NCTC 13423 (Acinetobacter baumannii [1]) | MIC A. baumannii NCTC 13424 (Acinetobacter baumannii [1]) | MIC E. coli ATCC25922 (Escherichia coli [2]) | MIC K. pneumoniae ATCC 4352 (Klebsiella pneumoniae [3]) | MIC K. pneumoniae ATCC-BAA-2146 (Klebsiella pneumoniae [3]) | MIC K. pneumoniae CCUG-59348 (Klebsiella pneumoniae [3]) | MIC P. aeruginosa ATCC 27853 (Pseudomonas aeruginosa [4]) | MIC P. aeruginosa ATCC CRM-9027 (Pseudomonas aeruginosa [4]) | MIC P. aeruginosa ATCC-47 (Pseudomonas aeruginosa [4]) | MIC P. aeruginosa CCUG 59626 (Pseudomonas aeruginosa [4]) | MIC A. baumannii ATCC13424 (Acinetobacter baumannii [5]) | MIC A. baumannii ATCCBAA-747 (Acinetobacter baumannii [5]) | MIC A. baumannii CCUG57249 (Acinetobacter baumannii [5]) | MIC A. baumannii NCTC 13423 (Acinetobacter baumannii [5]) | MIC E. coli NCTC9001 (Escherichia coli [6]) | MIC K. pneumoniae ATCC 4352 (Klebsiella pneumoniae [7]) | MIC K. pneumoniae ATCC-BAA2146 (Klebsiella pneumoniae [7]) | MIC K. pneumoniae CCUG-59348 (Klebsiella pneumoniae [7]) | MIC P. aeruginosa ATCC 27853 (Pseudomonas aeruginosa [8]) | Structure (SMILES) | also measured
1 | ≤0.06 micrograms/mL | ≤0.06 micrograms/mL | 0.125 micrograms/mL | 0.125 micrograms/mL | 0.125 micrograms/mL | 0.25 micrograms/mL | 2 micrograms/mL | 0.125 micrograms/mL | 0.125 micrograms/mL | 0.125 micrograms/mL | 0.125 micrograms/mL | 0.25 micrograms/mL | 0.5 micrograms/mL | 0.5 micrograms/mL | 0.125 micrograms/mL | 16 micrograms/mL | 0.5 micrograms/mL | 4 micrograms/mL | >32 micrograms/mL | 0.125 micrograms/mL | CC(C)C[C@@H]1NC(=O)[C@@H](Cc2ccccc2)NC(=O)[C@H](CCN)NC(=O)[C@@H](NC(=O)[C@H](CN)NC(=O)[C@@H](NC(=O)C2CCCC2N)C(C)O)CCNC(=O)[C@H](C(C)O)NC(=O)[C@H](CCN)NC(=O)[C@H](CCN)NC1=O (stereo partly drawn) [Example 43, [2-Amino-cyclopentane-carbonyl]-L-Thr-L-Dap-polymyxin B hepatapeptide, TFA salt] (X4-[Thr(3ξ)][Dap][Dab][Dab][dF]L[Dab][Dab][Thr(3ξ)]; lactam 3-C) | MIC A. baumannii ATCC BAA-747 (Acinetobacter baumannii [1]; strain ATCC BAA-747): 0.125 micrograms/mL; MIC E. coli NCTC9001 (Escherichia coli [2]; strain NCTC9001): 0.125 micrograms/mL; MIC E. coli ATCC25922 (Escherichia coli [6]; strain ATCC25922): 2 micrograms/mL; MIC P. aeruginosa ATCC-47 (Pseudomonas aeruginosa [8]): 1 micrograms/mL; MIC P. aeruginosa ATCCCRM-9027 (Pseudomonas aeruginosa [8]): 0.125 micrograms/mL; MIC P. aeruginosa CCUG 59626 (Pseudomonas aeruginosa [8]): ≤0.06 micrograms/mL
2 | 0.25 micrograms/mL | 0.125 micrograms/mL | 0.125 micrograms/mL | ≤0.06 micrograms/mL | 0.25 micrograms/mL | 0.5 micrograms/mL | 1 micrograms/mL | 0.5 micrograms/mL | 0.5 micrograms/mL | 0.25 micrograms/mL | 0.25 micrograms/mL | 1 micrograms/mL | 2 micrograms/mL | 2 micrograms/mL | 1 micrograms/mL | 16 micrograms/mL | 0.25 micrograms/mL | 2 micrograms/mL | 32 micrograms/mL | 0.25 micrograms/mL | CC(C)C[C@@H]1NC(=O)[C@@H](Cc2ccccc2)NC(=O)[C@H](CCN)NC(=O)[C@@H](NC(=O)[C@H](CN)NC(=O)[C@@H](NC(=O)C(O)C2CCCCC2)C(C)O)CCNC(=O)[C@H](C(C)O)NC(=O)[C@H](CCN)NC(=O)[C@H](CCN)NC1=O (stereo partly drawn) [Example 45, [2-cyclohexyl-2-hydroxyethanoyl]-L-Thr-L-Dap-polymyxin B heptapeptide, TFA salt] (ξHexahydromandeloyl-[Thr(3ξ)][Dap][Dab][Dab][dF]L[Dab][Dab][Thr(3ξ)]; lactam 3-C) | MIC P. aeruginosa ATCC-47 (Pseudomonas aeruginosa [8]): 1 micrograms/mL; MIC P. aeruginosa ATCCCRM-9027 (Pseudomonas aeruginosa [8]): 0.125 micrograms/mL; MIC P. aeruginosa CCUG 59626 (Pseudomonas aeruginosa [8]): 0.125 micrograms/mL
